Here are results for 52 compounds from PubChem BioAssay AID1996.

SMILES strings stand for the structures. ≈ marks a conversion by molar mass, not a printed value.

The conditions of this data set: buffer; pH 7.4; 200.0 µM.
Regarding `CCN1CCc2c(C#N)c(NCc3ccccc3)nc(NCCO)c2C1`, the kinetic solubility is 6.3 µg/mL (≈ 17.9 µM).
`Cn1c(N)c(C(=O)COC(=O)c2cc3ccccc3cc2O)c(=O)n(C)c1=O` registered a kinetic solubility of 3.6 µg/mL (≈ 9.39 µM).
On to `Cc1ccc(-c2c[n+](=O)c3c(n2[O-])CCC3)cc1`, for which the kinetic solubility is greater than 36.3 µg/mL.
Under `O=C(NCC(=O)c1ccccc1)OCc1ccc([N+](=O)[O-])cc1` stands 2.5 µg/mL (≈ 7.95 µM).
In the case of `C=CCNc1nc(NCc2ccccc2)c(C#N)c2c1CN(C)CC2` it was 3 µg/mL (≈ 9 µM); in that of `COc1ccc(C(=O)NC(C)C2CC3CCC2C3)cc1` (configuration not stated), 8.1 µg/mL (≈ 29.6 µM); in that of `CCCc1cc(=O)oc2c(CN3CCN(C)CC3)c(O)ccc12`, 45.2 µg/mL (≈ 143 µM).
In the case of `Cc1csc2c(=O)sc(NC(=O)c3ccc(F)cc3Cl)nc12` it was less than 0.4 µg/mL; in that of `Cl.O=C(NCCN1CCCC1)c1ccc(Cl)cc1Cl`, greater than 48.5 µg/mL; in that of `O=C(Nc1ccncc1)Nc1ccc(Cl)cc1`, 9.8 µg/mL (≈ 39.6 µM).
As to `Cc1cc(C)c2c(N)c(C(=O)Nc3cccc(C)c3C)sc2n1`, the kinetic solubility came out at 1.2 µg/mL (≈ 3.69 µM). Compared with the last compound, the solubility kinetic is about 8.2-fold lower.
In the case of `COc1ccc(C(CC(=O)O)N2Cc3ccccc3C2=O)cc1OC` (configuration not stated), the solubility (kinetic) was greater than 51.2 µg/mL.
In the case of `Cc1ccc(NC(=O)CN(C)C(=O)COc2ccccc2-c2ccccc2)cc1` it was 11.1 µg/mL (≈ 28.6 µM); in that of `Cc1ccc(C2=NOC3(CC(=O)N(c4ccc(C)cc4)C3=O)C2)cc1` (configuration not stated), 12.6 µg/mL (≈ 37.7 µM); in that of `Cn1c(=O)c(C(=O)NCc2ccc(Cl)cc2)c(O)c2ccccc21`, less than 0.4 µg/mL.
Under `Cc1nc(N)sc1-c1csc(Nc2cccc(C(=O)O)c2)n1` stands greater than 49.9 µg/mL; under `CCOC(=O)c1sc(=S)n(-c2ccc(OC)cc2)c1C`, 18.1 µg/mL (≈ 58.5 µM).
As to `Cc1cc(NC(=O)c2ccc3nccnc3c2)ccc1Br`, the solubility (kinetic) was 4.5 µg/mL (≈ 13.2 µM).
Under `CCOc1ccc2[nH]c3c(NCCO)ncnc3c2c1` stands greater than 40.8 µg/mL; under `Cc1cnc(C(=O)Nc2cc(F)ccc2C)cn1`, 15.6 µg/mL (≈ 63.6 µM); under `CC(Nc1nc(N2CCOCC2)nc2ccccc12)c1ccccc1` (configuration not stated), 6.8 µg/mL (≈ 20.3 µM).
Under `C=C(Br)Cn1cnc2ccccc21` stands greater than 35.6 µg/mL; under `COc1ccc([N+](=O)[O-])cc1NC(=O)C1CCCNC1=O` (configuration not stated), 19.1 µg/mL (≈ 65.1 µM).
Under `COc1ccc(N2CC(C(=O)Nc3cc(C)ccn3)CC2=O)cc1` (configuration not stated) stands greater than 48.8 µg/mL.
`CC1(C(=O)N2CCOCC2)CCCCC1` registered a solubility (kinetic) of 26.3 µg/mL (≈ 124 µM).
For `CC(C)c1cc(O)c(-c2ccccc2)c(=O)n1-c1ccc(Cl)cc1`, the kinetic solubility was less than 0.7 µg/mL.
As to `COc1ccc(/C(=N/Nc2ncnc3ccccc23)C(=O)O)cc1`, the solubility (kinetic) is greater than 48.3 µg/mL.
`CN(C)C(=O)C#Cc1ccccc1` came in with a solubility (kinetic) greater than 26 µg/mL.
The compound `N#Cc1ccccc1NC(=S)Nc1ccc(F)cc1` displayed a kinetic solubility of 35.1 µg/mL (≈ 129 µM).
`CCOC(=O)c1cnc2cc(F)c(F)cc2c1N1CCOCC1` displayed a solubility (kinetic) of 39.4 µg/mL (≈ 122 µM).
For `O=C(CNc1cccc([N+](=O)[O-])c1)NC(=O)NC1CCCCC1`, the kinetic solubility was 30 µg/mL (≈ 93.6 µM).
`O=C(CCc1nc(-c2ccccc2F)no1)Nc1cccnc1` came in with a kinetic solubility greater than 46.8 µg/mL.
In the case of `O=C(Nc1ccc2c(c1)C(=O)OC2)c1ccc(C(F)(F)F)cc1` it was less than 0.7 µg/mL; in that of `COc1ccc(OCC(O)CN(C)C(=O)C(C)Oc2ccccc2)cc1` (configuration not stated), greater than 53.9 µg/mL; in that of `CC(=O)c1c(C)nc(Nc2nc3ccccc3s2)nc1C`, 0.2 µg/mL (≈ 0.67 µM).
Under `O=C(Nc1ccc(Br)cc1)C1CCCC1` stands 7 µg/mL (≈ 26.1 µM).
Under `COc1ccc(Cl)cc1C(=O)NCc1ccco1` stands 31.8 µg/mL (≈ 120 µM); under `O=C(NCC(=O)N1CCCC(C(F)(F)F)C1)c1ccc(Oc2ccccc2)cc1` (configuration not stated), 36.3 µg/mL (≈ 89.3 µM).
In turn, `Cc1cccc(Cn2c(=O)oc3ccc(C)cc32)c1` yielded a solubility (kinetic) of 4.5 µg/mL (≈ 17.8 µM).
Under `Cc1c(NS(=O)(=O)c2cc(C(=O)NCc3cccnc3)ccc2Cl)c(=O)n(-c2ccccc2)n1C` stands greater than 76.8 µg/mL.
On to `CN1CC(=O)N2[C@H](c3ccc4c(c3)OCO4)c3[nH]c4ccccc4c3C[C@@H]2C1=O`, for which the kinetic solubility amounted to 3.2 µg/mL (≈ 8.22 µM).
Turning to `Cc1cccc(C)c1NC(=O)C(C)N1CCCC1` (configuration not stated), the solubility (kinetic) was greater than 37 µg/mL.
In the case of `Cc1nc(CSc2ccc(Br)cc2)cs1` it was 8.8 µg/mL (≈ 29.3 µM); in that of `CCN(CC(=O)NC1CCS(=O)(=O)C1)c1ccc(S(=O)(=O)N(CC)CC)cc1[N+](=O)[O-]` (configuration not stated), greater than 71.5 µg/mL.
In the case of `CC(=O)N(CCc1ccccc1)Cc1cc2ccc(C)c(C)c2[nH]c1=O` it was 17.4 µg/mL (≈ 49.9 µM); in that of `CCOc1ccccc1NC(=O)NC(C)c1ccc2c(c1)OCO2` (configuration not stated), 3.4 µg/mL (≈ 10.4 µM).
In turn, `O=C(c1ccco1)N1CCN(C(=O)c2ccc(-c3ccc([N+](=O)[O-])cc3)o2)CC1` displayed a kinetic solubility of 44.1 µg/mL (≈ 112 µM).
As to `CSc1nc(C)[nH]c(=O)c1C#N`, the kinetic solubility was greater than 27.2 µg/mL.
Under `Cc1ccc(CN2CCN(c3cccc4[nH]ccc34)CC2)cc1` stands 41.2 µg/mL (≈ 135 µM).
As to `CCOCCn1c(N2CCCC2)nc2c1c(=O)[nH]c(=O)n2C`, the kinetic solubility worked out at 45.2 µg/mL (≈ 147 µM).
In turn, `O=c1[nH]cc(COCC(F)CCl)c(=O)[nH]1` (configuration not stated) came in with a kinetic solubility greater than 35.5 µg/mL.
`Cc1ccc(C(=O)Nc2ccc3c(c2)OCCO3)c(Cl)c1` had a solubility (kinetic) of 4.3 µg/mL (≈ 14.2 µM).
